Laboratory results published in patent publication US20240092741A1, “COMPOSITION FOR PREVENTION OR TREATMENT OF NEUROFIBROMATOSIS TYPE 2 SYNDROME” (PRG S&TECH INC., priority 2021, published 2024).
Entries after “also recorded” stand apart in the source; their conditions may differ.

Key:
[1] = tested on: RKIP; assay: RKIP expression by Western blotting in HEI-193 cells; type: cell-based, human; settings: compounds 10 μM, 24 h (FIG. 1A) or 72 h (FIG. 2), Western blot
Protocol: (§1) Cells were harvested and lysed using RIPA buffer [50 mM Tris-Cl, pH 7.5, 150 mM NaCl, 1% NP-40, 0.1% SDS, and 10% sodium deoxycholate] to examine cellular signaling. Protein concentrations in samples were measured using Bio-Rad (Hercules, CA, USA) protein assay kits and BSA standards. The samples (20 μg protein per lane) were separated by sodium dodecyl sulfate-polyacrylamide gel electrophoresis (SDS-PAGE), transferred to Immobilon-P^SQ transfer membranes (Millipore Corp., MA, USA), which were then cultured with 3% skim milk-containing TBS-T buffer (Tris-HCl-based buffer containing 20 mM Tris pH 7.6, 150 mM NaCl, and 0.05% Tween 20) for 1 hour at room temperature and then reacted with primary antibody in TBS-T overnight at 4° C. The membranes were then washed and reacted with secondary horseradish peroxidase (HRP)-conjugated antibodies [goat anti-mouse, goat anti-rabbit, and mouse anti-goat antibodies (Pierce, Thermo Fisher Scientific, Inc., Rockford, IL, USA)] in TBS-T at room temperature for 2 hours. The blots were detected using an HRP-conjugated secondary antibody using ECL kit (Intron, Seoul, Korea).
Because RKIP degradation in NF2 cells is clearly known (Mol Cancer Ther 17, 2271-2284, 2018), after first treating 260 novel synthetic compounds, RKIP expression was measured in HEI-193, a human NF2 cell line.

[2] = tested on: normal fibroblasts; assay: MTT cell viability assay in normal fibroblasts; type: cell-based, human; settings: indicated concentrations, 7 days (FIG. 5A)
Protocol: To measure cell viability, MTT (3-(4,5-dimethylthiazol-2-yl)-2,5-diphenyltetrazolium bromide) assay was used. In other words, the cells were seeded in 96-well plates and treated with the indicated chemicals for a predetermined time. After removing the medium, 200 μl of MTT solution (0.5 mg/ml) dissolved in PBS was added to each well. Plates were then cultured at 37° C. for 4 hours, the MTT solution was removed, the precipitated substances were dissolved using a solution (DMSO:ethanol=1:1), and an amount of formazan dye produced was quantified by measuring the absorbance at 560 nm using an ELISA microplate reader (Thermo Fisher Scientific, MA, USA).

[3] = target: T1, interaction between TβR1 and RKIP (Homo sapiens, UniProt P30086+P36897); assay: GST-pull down assay of TβR1-RKIP interaction; type: binding
T1 construct: host or cells: HEK293 (TβR1 lysate)
T1 sequence (P30086 whole entry): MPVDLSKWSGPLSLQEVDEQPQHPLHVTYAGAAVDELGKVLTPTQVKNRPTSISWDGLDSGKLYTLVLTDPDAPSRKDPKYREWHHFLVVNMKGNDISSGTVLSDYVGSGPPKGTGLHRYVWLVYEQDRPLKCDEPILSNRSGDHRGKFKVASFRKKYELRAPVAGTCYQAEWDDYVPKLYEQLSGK
T1 sequence (P36897 34-503): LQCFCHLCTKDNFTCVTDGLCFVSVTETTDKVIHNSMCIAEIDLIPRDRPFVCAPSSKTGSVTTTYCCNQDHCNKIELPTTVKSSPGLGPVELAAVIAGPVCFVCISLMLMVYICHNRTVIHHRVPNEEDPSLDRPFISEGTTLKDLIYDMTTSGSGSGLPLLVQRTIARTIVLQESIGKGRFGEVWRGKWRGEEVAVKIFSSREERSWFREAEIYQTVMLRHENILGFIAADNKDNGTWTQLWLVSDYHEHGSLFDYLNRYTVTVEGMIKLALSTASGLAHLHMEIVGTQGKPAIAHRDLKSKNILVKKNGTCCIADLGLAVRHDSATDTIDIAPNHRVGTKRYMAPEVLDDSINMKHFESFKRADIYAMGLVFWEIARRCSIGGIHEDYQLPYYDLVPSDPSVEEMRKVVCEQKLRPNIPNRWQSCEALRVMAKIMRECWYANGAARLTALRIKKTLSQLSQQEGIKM
Protocol: For protein-protein interaction analysis, glutathione S-transferase (GST)-pull down assay was performed. For GST-pull down, agarose-bead-conjugated GST-RKIP recombinant protein was reacted with FLAG-tagged TβR1-transfected HEK 293 cell lysates in PBS buffer at 4° C. for 1 hour. Immunoprecipitation (IP) assay was performed by reacting with FLAG-tagged TβR1- or HA-tagged RKIP-transfected HEI-193 cell lysates in PBS buffer. Whole lysates were reacted with appropriate primary antibodies at 4° C. for 2 hours and with agarose-bead-conjugated protein A/G (Invitrogen, Carlsbad, CA, USA) for 2 hours. After centrifugation, the precipitates were washed twice with RIPA buffer and subjected to SDS-PAGE and western blotting analysis.

[4] = tested on: Erk; assay: Erk activation by Western blotting in HEI-193 cells; type: cell-based, human; settings: 24 h (FIG. 6A)
Protocol: as §1

[5] = tested on: TGF-β signaling; assay: Smad2/3 phosphorylation after TGF-β1 in HEI-193 cells; type: cell-based, human; settings: 10 μM, TGF-β1 1 ng/ml (FIGS. 16A, 16B)
Protocol: as §1

[6] = tested on: NF2-transfected HEI-193 cells; assay: MTT and immunoblotting in NF2-transfected HEI-193 cells; type: cell-based, human; settings: NF2-transfected HEI-193 cells (FIGS. 8B, 8C)
Protocol: In other words, cells were seeded at a density of 2×10^5 cells/well in 12-well plates and cultured overnight before transfection. The vector (1.5 μg) was mixed with 1.5 μl of Jetpei reagent dissolved in 150 mM NaCl solution. The mixture was reacted at room temperature for 15 minutes, and then added to the cells. After 3 hours, the serum-free medium 15 was replaced with medium supplemented with 10% FBS. Cells were harvested and lysed using RIPA buffer [50 mM Tris-Cl, pH 7.5, 150 mM NaCl, 1% NP-40, 0.1% SDS, and 10% sodium deoxycholate] to examine cellular signaling. Protein concentrations in samples were measured using Bio-Rad (Hercules, CA, USA) protein assay kits and BSA standards. […] The blots were detected using an HRP-conjugated secondary antibody using ECL kit (Intron, Seoul, Korea). […] Plates were then cultured at 37° C. for 4 hours, the MTT solution was removed, the precipitated substances were dissolved using a solution (DMSO:ethanol=1:1), and an amount of formazan dye produced was quantified by measuring the absorbance at 560 nm using an ELISA microplate reader (Thermo Fisher Scientific, MA, USA).

[7] = tested on: HEI-193 cells; assay: Tumorsphere formation assay, HEI-193 cells; type: cell-based, human; settings: 10 μM
Protocol: For tumorsphere formation assay, Hei-193 or mouse schwannoma cells (3×10^6 cells/plate) were cultured in DMEM/F12 medium (supplemented with 2% B27 and 40 ng/ml bFGF) and added with the indicated chemicals on non-coated plates for indicated days.

[8] = High-dose toxicity in normal mice (body weight); type: in vivo
[9] = tumorspheres, 10th day, immunoblotting (FIGS. 15B, 14E)

CCN(CC)CCOc1ccc(-c2nnn(Cc3ccc(OC)cc3)c2N)cc1 [PRG-N-01, 4-(4-(2-(diethylamino)ethoxy)phenyl)-1-(4-methoxybenzyl)-1H-1,2,3-triazol-5-amino]
RKIP expression [1]: induced RKIP expression; also recorded: increased RKIP expression
toxicity in normal fibroblasts (MTT) [2]: without causing toxicity
interaction between TβR1 and RKIP at low concentrations ([3]; GST pull-down, low concentrations (FIG. 6B)): showed an inhibitory effect even at low concentrations
interaction between TβR1 and RKIP ([3]; GST-RKIP beads with TβR1-transfected HEK293 lysates, 5 and 10 μM, 2 h (FIG. 5B)): inhibited the interaction between TβR1 and RKIP in a dose-dependent manner
Erk activation [4]: inhibited Erk activation
duration of Smad 2/3 phosphorylation (canonical TGF-β signaling) [5]: prolonged
chemical effect (antiproliferating effect, RKIP induction, p-Erk suppression) [6]: no chemical effect
tumorsphere size and number ([7]; HEI-193 cells, 10th day): reduced the tumorsphere size as well as the number of tumorsphere
tumorsphere formation ([7]; HEI-193 cells, DMEM/F12 medium): obviously inhibited tumorsphere formation
SOX10 expression in tumorspheres [7, 9]: obviously increased
expression of stem cell factors (SOX2, c-Myc, Nanog, Oct4) in tumorspheres [7, 9]: downregulated to undetectable levels
body weight ([8]; 200 mg/kg intraperitoneally (FIG. 18B)): did not change the body weight
toxicity ([8]; 200 mg/kg, 10 times the therapeutic dose): did not cause severe toxicity
